What was measured:
[1] = system: human rectal cancer cell line HCT116; assay: In vivo anticancer activity, intravenous injection, HCT116 rectal cancer in nude mice; parameters: species or system mouse; conditions: Example 1 30 mg/kg/day, topotecan 2 mg/kg/day; for Tumor volume changes (mm^3): iv; for Inhibition rate (%) of tumor volume: vs control
Description: To evaluate the inhibition effect of the compound prepared in example 1 administered via intravenous injection on the growth of rectal cancer, in vivo anticancer activity in mouse was measured. Particularly, nude-mice were grouped for experimental and control groups (5 mice per group). Changes in body weight, tumor volume, and tumor weight were measured to evaluate in vivo anticancer activity.
Female nude mice at 6 weeks (BALB/c nu/nu, Charles River) were raised in a germ-free facility where temperature and humidity were maintained at proper levels during the whole experimental period. After anesthetizing each mouse, the human rectal cancer cell line HCT116 was transplanted in rectal tissues at the density of 4×10^7 cells/mouse, and then the opened rectum was sealed with surgical clips. After transplanting the rectal cancer cell line, the tumor volume was measured with calipers. When the tumor volume reached 54.5 mm^3, the compound of the present invention prepared in example 1 was treated thereto. Particularly, for the experimental group, the compound of example 1 was dissolved in the solvent composed of saline (80%), DMAC (10%), and tween 80 (10%), which is indicated as ‘solvent A’ hereinafter, at the concentration of 30 mg/kg. […] The control was treated with the solvent A only without the compound once a day via oral administration at the dose of 15 ml/kg. The comparative group was treated with the solvent A containing topotecan (2 mg/kg) via intravenous injection once a day at the dose of 15 ml/kg. The weight and the tumor volume were measured once a day on day 0, 2, 3, 4, 5, 6, and 8.
Tumor volume was calculated by the following mathematical formula 1. To investigate the toxicity according to the repeated intravenous administration of the compound of example 1, mouse weight changes were observed and presented in Table 3. Inhibition rate (%) in Table 4 was calculated by the following mathematical formula 2, which indicates the inhibition of tumor growth by the compound presented by %. Tumor Volume(mm^3)=(major axis length of tumor cells, mm)×(minor axis length of tumor cells, mm)^2×0.5 [Mathematical Formula 1] Inhibition Rate (%)=[(Tumor Volume of Control−Tumor Volume of Experimental Group)/(Tumor Volume of Control)]×100 [Mathematical Formula 2]

[2] = Mouse weight changes and symptoms, intraperitoneal administration (B16F10 metastasis experiment); type: in vivo; conditions: for Mouse weight changes (%): ip, Example 1 20 mg/kg/day, topotecan 2 mg/kg/2 day
Description: Particularly, the experimental group composed of 6 female mice (C57BL) at 6 weeks was transplanted with B16F10 melanoma cell line. After the cancer cells were grown, the mice were treated with the compound of formula 1 via intraperitoneal injection at the dose of […] every day for 12 days. Inhibition of angiogenesis and the tumor growth were observed. In the meantime, the control group was treated with purified water every day. The comparative group was treated with topotecan at the dose of 2 mg/kg once every other day. Weight changes and cancer metastasis were measured and the results are shown in Table 9, Table 10, and FIG. 10.

[3] = Mouse weight changes and symptoms, repeated intravenous administration (Caki-1 model); type: in vivo; conditions: for Mouse weight changes (%): iv, Example 1 20 mg/kg/day, topotecan 2 mg/kg/day
Description: Female nude mice at 6 weeks (BALB/c nu/nu, Charles River) were raised in a germ-free facility where temperature and humidity were maintained at proper levels during the whole experimental period. After anesthetizing each mouse, the human kidney cancer cell line Caki-1 was transplanted in kidney tissues at the density of 4×10^7 cells/mouse, and then the opened kidney was sealed with surgical clips. After transplanting the kidney cancer cell line, the tumor volume was measured with calipers. When the tumor volume reached 52.7 mm^3, the compound of the present invention prepared in example 1 was treated thereto. Particularly, for the experimental group, the compound of example 1 was dissolved in the solvent composed of cremophor (10%), DMAC (10%), and pH 10 buffer […], which is indicated as ‘solvent B’ hereinafter, at the concentration of 20 mg/kg. The prepared compound solution was intravenously administered to the experimental group mice once a day at the dose of […]. The control was treated with the solvent B only without the compound once a day via oral administration at the dose of 15 ml/kg. The comparative group was treated with the solvent B containing topotecan (2 mg/kg) via intravenous injection once a day at the dose of 15 ml/kg. The weight and the tumor volume were measured once a day on day 0, 2, 4, 7, 9, 11, and 14.
Tumor volume was calculated by the mathematical formula 1 of Experimental Example 4. To investigate the toxicity according to the repeated intravenous administration of the compound of example 1, mouse weight changes were observed and presented in Table 5. Inhibition rate (%) in Table 6 was calculated by the mathematical formula 2, which indicates the inhibition of tumor growth by the compound presented by %.

[4] = system: VEGF (vascular endothelial growth factor A); assay: Expression of HIF-1 target gene VEGF (RT-PCR, HCT116); type: cell-based, human
Description: To investigate HIF-1 inhibition activity of the compound of the present invention, the inhibition of VEGF and EPO, two most representative HIF-1 target genes, by the compound of formula 1 prepared in example 1 was measured. Particularly, the colon cancer cell line HCT116 was used for the measurement as follows.
The human colon cancer cell line HCT116 was seeded in cell culture vessel at the density of 2×10^5 cell/ml, followed by culture for 24 hours. The cells were pretreated in hypoxic condition (oxygen 1%; nitrogen 94%; carbon dioxide 5%) for 4 hours to induce the accumulation of HIF-1α. The cells were treated with the compound of formula 1 prepared in example 1 at the concentrations of 0, 10, and 20 μM, followed by culture for 12 hours in hypoxic condition. Then, mRNA was extracted by using trizol. To compare the expression with that of HIF-1 target gene treated with the compound prepared in comparative example 1, the control was treated with the compound of comparative example 1 at the concentrations of 0, 10, 15, and 20 μM. From the extracted mRNA, cDNA was synthesized by using RT-PCR kit (Invitrogen). The amounts of mRNAs of the HIF-1α target genes VEGF (vascular endothelial growth factor A) and EPO (erythropoietin) were measured by using RT-PCR and real-time RT-PCR. […]

Mouse weight changes (%) ([2]; day 0) | Mouse weight changes (%) ([2]; day 2) | Mouse weight changes (%) ([2]; day 5) | Mouse weight changes (%) ([2]; day 7) | Mouse weight changes (%) ([2]; day 9) | Mouse weight changes (%) ([2]; day 12) | Mouse weight changes (%) ([3]; day 0) | Mouse weight changes (%) ([3]; day 2) | Mouse weight changes (%) ([3]; day 4) | Mouse weight changes (%) ([3]; day 7) | Mouse weight changes (%) ([3]; day 9) | Compound | Tumor volume changes (mm^3) ([1]; day 0) | Tumor volume changes (mm^3) ([1]; day 2) | Inhibition rate (%) of tumor volume ([1]; day 2) [%] | Tumor volume changes (mm^3) ([1]; day 4) | Inhibition rate (%) of tumor volume ([1]; day 4) [%] | Tumor volume changes (mm^3) ([1]; day 6) | Inhibition rate (%) of tumor volume ([1]; day 6) [%] | Tumor volume changes (mm^3) ([1]; day 8) | Inhibition rate (%) of tumor volume ([1]; day 8) [%] | also measured
100.0 ± 0.0 | 101.0 ± 2.9 | 103.5 ± 6.1 | 104.0 ± 4.6 | 104.3 ± 6.2 | 103.7 ± 5.5 | 100.0 ± 0.0 | 104.7 ± 1.9 | 103.8 ± 3.8 | 103.4 ± 2.6 | 101.8 ± 3.6 | CC[C@@]1(O)C(=O)OCc2c1cc1n(c2=O)Cc2cc3c(CN(C)C)c(O)ccc3nc2-1 [topotecan, reference compound] | 0.0 ± 0.0 | 16.5 ± 3.9 | 44.9 | 44.3 ± 10.1 | 58.1 | 69.1 ± 13.2 | 67.9 | 93.1 ± 22.3 | 71.4 | Mouse weight changes (%) ([3]; day 11): 103.0 ± 3.6%; Mouse weight changes (%) ([3]; day 14): 102.9 ± 5.3%
100.0 ± 0.0 | 98.7 ± 3.4 | 101.2 ± 4.6 | 103.4 ± 3.8 | 107.6 ± 2.8 | 107.6 ± 3.3 | 100.0 ± 0.0 | 104.7 ± 1.7 | 105.3 ± 2.2 | 105.5 ± 3.1 | 106.6 ± 4.9 | COC(=O)c1cccc(NC(=O)/C=C/Oc2ccc(C34CC5CC(CC(C5)C3)C4)cc2)c1 [Example 1, (E)-3-[3-(4-Adamantan-1-yl-phenoxy)-acryloylamino]-benzoic acid methyl ester] | 0.0 ± 0.0 | 19.4 ± 5.8 | 35.3 | 50.6 ± 20.9 | 52.1 | 114.3 ± 36.8 | 47.0 | 176.8 ± 50.0 | 45.7 | body weight on the final day of observation (day 12) compared with control ([2]; 20 mg/kg ip, C57BL mice): not significantly reduced; symptoms during repeated intraperitoneal injection ([2]; 20 mg/kg ip, C57BL mice, 12 days): no specific symptom was observed; body weight on the final day of observation (day 14) compared with control ([3]; 20 mg/kg iv, nude mice): not significantly reduced; symptoms during repeated intravenous administration ([3]; 20 mg/kg iv, nude mice): no specific symptom was observed; Mouse weight changes (%) ([3]; day 11): 107.3 ± 6.8%; Mouse weight changes (%) ([3]; day 14): 109.5 ± 6.4%; expression of GAPDH ([4]; internal control gene, HCT116, hypoxic condition): did not change; expression of VEGF ([4]; mRNA, HCT116, hypoxic condition, 0, 10, 20 μM, FIG. 5): inhibited the expressions of VEGF and EPO, the HIF-1 target genes, dose-dependently

From patent publication US8940936B2, “Aryloxy phenoxy acrylic compound having HIF-1 inhibition activity, method for preparing same, and pharmaceutical composition containing same as an active ingredient” (Korea Research Institute of Bioscience and Biotechnology, priority 2010, dated 2015)
